Experimental data: article PMC5218480 (PLoS ONE, 2017)

System: MV-4-11 cells
Experiment: Gene expression microarray analysis (Affymetrix PrimeView) and GSEA
Format: cell-based, human
Set-up: RFU PODN (11730768_x_at) / Fold change /veh PODN (11730768_x_at) / RFU LINC00158 (11744669_a_at) / Fold change /veh LINC00158 (11744669_a_at) / RFU DUSP10 (11751237_a_at) / Fold change /veh DUSP10 (11751237_a_at) / RFU ID3 (11757404_x_at) / Fold change /veh ID3 (11757404_x_at) / RFU PLEKHG5 (11737974_s_at) / Fold change /veh PLEKHG5 (11737974_s_at) / RFU LRRC4B (11730491_at) / Fold change /veh LRRC4B (11730491_at) / RFU GIMAP4 (11747438_a_at) / Fold change /veh GIMAP4 (11747438_a_at) / RFU KRT8 (11758183_x_at) / Fold change /veh KRT8 (11758183_x_at) / RFU CNN1 (11734310_a_at) / Fold change /veh CNN1 (11734310_a_at) / RFU VPS37D (11726825_at) / Fold change /veh VPS37D (11726825_at) / RFU C10orf10 (11716522_x_at) / Fold change /veh C10orf10 (11716522_x_at) / RFU KIR2DL2 /// KIR2DL4 /// KIR2DL5A /// KIR2DL5B /// KIR2DS1 /// KIR2DS2 /// KIR2DS3 /// KIR2DS4 /// KIR3DL3 /// KIR3DL3 /// KIR3DS1 (11738374_at) / Fold change /veh KIR2DL2 /// KIR2DL4 /// KIR2DL5A /// KIR2DL5B /// KIR2DS1 /// KIR2DS2 /// KIR2DS3 /// KIR2DS4 /// KIR3DL3 /// KIR3DL3 /// KIR3DS1 (11738374_at) / RFU C1QL1 (11718748_at) / Fold change /veh C1QL1 (11718748_at) / RFU TMPRSS4 (11747572_a_at) / Fold change /veh TMPRSS4 (11747572_a_at) / RFU HAMP (11756126_x_at) / Fold change /veh HAMP (11756126_x_at) / RFU RNFT2 (11725882_a_at) / Fold change /veh RNFT2 (11725882_a_at) / RFU NR4A2 (11747474_a_at) / Fold change /veh NR4A2 (11747474_a_at) / RFU ABCC12 (11746883_a_at) / Fold change /veh ABCC12 (11746883_a_at) / RFU TMEM136 (11760407_x_at) / Fold change /veh TMEM136 (11760407_x_at) / RFU CLDN22 /// WWC2 (11732394_at) / Fold change /veh CLDN22 /// WWC2 (11732394_at) / RFU HLA-DPB1 (11760878_x_at) / Fold change /veh HLA-DPB1 (11760878_x_at) / RFU SPINT1 (11716480_a_at) / Fold change /veh SPINT1 (11716480_a_at) / RFU GAP43 (11754022_s_at) / Fold change /veh GAP43 (11754022_s_at) / RFU A4GNT (11735810_at) / Fold change /veh A4GNT (11735810_at) / RFU PRB3 (11715151_x_at) / Fold change /veh PRB3 (11715151_x_at) / RFU TUBB4B (11761932_at) / Fold change /veh TUBB4B (11761932_at) / RFU CAPN14 (11732068_a_at) / Fold change /veh CAPN14 (11732068_a_at) / RFU TMCC2 (11721928_a_at) / Fold change /veh TMCC2 (11721928_a_at) / RFU IRGQ (11745062_a_at) / Fold change /veh IRGQ (11745062_a_at) / RFU FAM174B (11720279_a_at) / Fold change /veh FAM174B (11720279_a_at) / RFU TMPRSS4 (11748680_a_at) / Fold change /veh TMPRSS4 (11748680_a_at) / RFU FAM212B (11763350_a_at) / Fold change /veh FAM212B (11763350_a_at) / RFU PLEKHG5 (11743358_a_at) / Fold change /veh PLEKHG5 (11743358_a_at) / RFU ZSCAN30 (11745921_a_at) / Fold change /veh ZSCAN30 (11745921_a_at) / RFU CMKLR1 (11741424_a_at) / Fold change /veh CMKLR1 (11741424_a_at) / RFU LOC101060620 /// MAPK8IP1 (11723275_at) / Fold change /veh LOC101060620 /// MAPK8IP1 (11723275_at) / RFU SPTSSB (11747773_x_at) / Fold change /veh SPTSSB (11747773_x_at) / RFU PRSS12 (11739890_at) / Fold change /veh PRSS12 (11739890_at) / RFU BIN1 (11741810_x_at) / Fold change /veh BIN1 (11741810_x_at) / RFU WNT11 (11732464_a_at) / Fold change /veh WNT11 (11732464_a_at) / RFU C10orf10 (11716521_a_at) / Fold change /veh C10orf10 (11716521_a_at) / RFU C5orf56 (11738089_at) / Fold change /veh C5orf56 (11738089_at) / RFU CYB561 (11721691_x_at) / Fold change /veh CYB561 (11721691_x_at) / RFU ANKRD19P (11752326_a_at) / Fold change /veh ANKRD19P (11752326_a_at) / RFU OR2T12 /// OR2T33 /// OR2T8 (11738714_s_at) / Fold change /veh OR2T12 /// OR2T33 /// OR2T8 (11738714_s_at) / RFU VCAN (11748164_a_at) / Fold change /veh VCAN (11748164_a_at) / RFU JSRP1 (11732532_at) / Fold change /veh JSRP1 (11732532_at) / RFU KRTAP10-11 (11738290_x_at) / Fold change /veh KRTAP10-11 (11738290_x_at) / RFU MYO3A (11730013_a_at) / Fold change /veh MYO3A (11730013_a_at) / RFU EBF3 (11725865_a_at) / Fold change /veh EBF3 (11725865_a_at) / RFU CAMK2N1 (11719241_x_at) / Fold change /veh CAMK2N1 (11719241_x_at) / RFU C5orf56 (11738088_a_at) / Fold change /veh C5orf56 (11738088_a_at) / RFU OLFML3 (11715873_a_at) / Fold change /veh OLFML3 (11715873_a_at) / RFU LOC100653217 /// NTM (11731650_a_at) / Fold change /veh LOC100653217 /// NTM (11731650_a_at) / RFU MAPK11 (11762145_a_at) / Fold change /veh MAPK11 (11762145_a_at) / RFU FIZ1 (11724087_x_at) / Fold change /veh FIZ1 (11724087_x_at) / RFU OASL (11726364_x_at) / Fold change /veh OASL (11726364_x_at) / RFU SOX15 (11748057_x_at) / Fold change /veh SOX15 (11748057_x_at) / RFU CD79A (11719716_a_at) / Fold change /veh CD79A (11719716_a_at) / RFU HIST1H1D (11736915_at) / Fold change /veh HIST1H1D (11736915_at) / RFU CASKIN2 (11723855_a_at) / Fold change /veh CASKIN2 (11723855_a_at) / RFU LOC730098 (11760151_x_at) / Fold change /veh LOC730098 (11760151_x_at) / RFU OR4N2 (11742367_at) / Fold change /veh OR4N2 (11742367_at) / RFU PRRT2 (11749266_a_at) / Fold change /veh PRRT2 (11749266_a_at) / RFU SNX32 (11753110_a_at) / Fold change /veh SNX32 (11753110_a_at) / RFU CDHR5 (11726645_a_at) / Fold change /veh CDHR5 (11726645_a_at) / RFU RCAN1 (11760418_a_at) / Fold change /veh RCAN1 (11760418_a_at) / RFU FAM167A (11723789_a_at) / Fold change /veh FAM167A (11723789_a_at) / RFU FAM26E (11764081_at) / Fold change /veh FAM26E (11764081_at) / RFU ISYNA1 (11749810_s_at) / Fold change /veh ISYNA1 (11749810_s_at) / RFU ACY1 (11761880_at) / Fold change /veh ACY1 (11761880_at) / RFU 11764098_at / Fold change /veh 11764098_at / RFU SAMD14 (11745864_x_at) / Fold change /veh SAMD14 (11745864_x_at) / RFU NPB (11741838_a_at) / Fold change /veh NPB (11741838_a_at) / RFU TMPRSS6 (11731388_a_at) / Fold change /veh TMPRSS6 (11731388_a_at) / RFU KRTAP10-2 (11738614_at) / Fold change /veh KRTAP10-2 (11738614_at) / RFU ARHGAP8 /// PRR5-ARHGAP8 (11727945_x_at) / Fold change /veh ARHGAP8 /// PRR5-ARHGAP8 (11727945_x_at) / RFU KRTAP5-7 /// NADSYN1 (11734609_at) / Fold change /veh KRTAP5-7 /// NADSYN1 (11734609_at) / RFU RASL12 (11751679_a_at) / Fold change /veh RASL12 (11751679_a_at) / RFU CDKN2B (11736163_a_at) / Fold change /veh CDKN2B (11736163_a_at) / RFU PRF1 (11729649_at) / Fold change /veh PRF1 (11729649_at) / RFU, ZNF638 /// ZNF638-IT1 / Fold change vs veh, ZNF638 /// ZNF638-IT1 / RFU, PANK3 / Fold change vs veh, PANK3 / RFU, SH3YL1 / Fold change vs veh, SH3YL1 / RFU, ZEB2 / Fold change vs veh, ZEB2 / RFU, NRIP1 / Fold change vs veh, NRIP1 / RFU, PTTG1IP / Fold change vs veh, PTTG1IP / RFU, CAPN2 / Fold change vs veh, CAPN2 / RFU, MED14 / Fold change vs veh, MED14 / RFU, SNORA58 / Fold change vs veh, SNORA58 / RFU, C1orf63 / Fold change vs veh, C1orf63 / RFU, LRRFIP1 / Fold change vs veh, LRRFIP1 / RFU, NDUFAF7 / Fold change vs veh, NDUFAF7 / RFU, SLC12A2 / Fold change vs veh, SLC12A2 / RFU, IBTK / Fold change vs veh, IBTK / RFU, ESF1 / Fold change vs veh, ESF1 / Fold change vs veh, TMEM50B / RFU, TAOK1 / Fold change vs veh, TAOK1 / RFU, ACBD3 / Fold change vs veh, ACBD3 / RFU, TMA16 / Fold change vs veh, TMA16 / RFU, RWDD3 / Fold change vs veh, RWDD3 / RFU, BCAT1 / Fold change vs veh, BCAT1 / RFU, EDEM3 / Fold change vs veh, EDEM3 / RFU, TMEM33 / Fold change vs veh, TMEM33 / RFU, WDR75 / Fold change vs veh, WDR75 / RFU, AHCTF1 / Fold change vs veh, AHCTF1 / RFU, TFRC / Fold change vs veh, TFRC / RFU, ZDHHC17 / Fold change vs veh, ZDHHC17 / RFU, NOM1 / Fold change vs veh, NOM1 / RFU, ARL8B / Fold change vs veh, ARL8B / RFU, ZBTB11 / Fold change vs veh, ZBTB11 / RFU, TAMM41 / Fold change vs veh, TAMM41 / RFU, KIAA1704 /// LOC100996395 / Fold change vs veh, KIAA1704 /// LOC100996395 / RFU, ING1 / Fold change vs veh, ING1 / RFU, TRMT61B / Fold change vs veh, TRMT61B / RFU, FUBP3 / Fold change vs veh, FUBP3 / RFU, TP53 / Fold change vs veh, TP53 / RFU, TNKS2 / Fold change vs veh, TNKS2 / RFU, ZFP14 / Fold change vs veh, ZFP14 / RFU, ACTR2 / Fold change vs veh, ACTR2 / RFU, PPP3R1 / Fold change vs veh, PPP3R1 / RFU, PIK3R1 / Fold change vs veh, PIK3R1 / RFU, HNRNPA1 / Fold change vs veh, HNRNPA1 / RFU, RNF170 / Fold change vs veh, RNF170 / RFU, ZNF28 / Fold change vs veh, ZNF28 / RFU, RNGTT / Fold change vs veh, RNGTT / RFU, OGT / Fold change vs veh, OGT / RFU, BRD1 / Fold change vs veh, BRD1 / RFU, MARS / Fold change vs veh, MARS / RFU, ZNF655 / Fold change vs veh, ZNF655 / RFU, FAHD1 / Fold change vs veh, FAHD1 / RFU, BDP1 / Fold change vs veh, BDP1 / RFU, LRRCC1 / Fold change vs veh, LRRCC1 / RFU, ARID1A / Fold change vs veh, ARID1A / RFU, ZNF146 / Fold change vs veh, ZNF146 / RFU, ZNF330 / Fold change vs veh, ZNF330 / RFU, GPN3 / Fold change vs veh, GPN3 / RFU, C9orf123 / Fold change vs veh, C9orf123 / RFU, N4BP2L2 / Fold change vs veh, N4BP2L2 / RFU, ARFIP1 / Fold change vs veh, ARFIP1 / RFU, FAM179B / Fold change vs veh, FAM179B / RFU, BCL10 / Fold change vs veh, BCL10 / RFU, UHRF1BP1L / Fold change vs veh, UHRF1BP1L / RFU, BET1 / Fold change vs veh, BET1 / RFU, CNOT2 / Fold change vs veh, CNOT2 / RFU, ZNF268 / Fold change vs veh, ZNF268 / Fold change vs veh, ZNF507 / RFU, DGCR2 / Fold change vs veh, DGCR2 / RFU, WDSUB1 / Fold change vs veh, WDSUB1 / Fold change vs veh, HSP90B1 /// MIR3652 / RFU, ADSS / Fold change vs veh, ADSS / RFU, GK / Fold change vs veh, GK / RFU, ZNF148 / Fold change vs veh, ZNF148 / RFU, TAF9 / Fold change vs veh, TAF9 / RFU, SLC1A5 / Fold change vs veh, SLC1A5 / RFU, SLMO2 / Fold change vs veh, SLMO2 / RFU, ABCC4 / Fold change vs veh, ABCC4 / RFU, LOC101060439 /// RAP1B / Fold change vs veh, LOC101060439 /// RAP1B / RFU, RFX7 / Fold change vs veh, RFX7 / RFU, GTPBP10 / Fold change vs veh, GTPBP10 / RFU, CNEP1R1 / Fold change vs veh, CNEP1R1 / RFU, BIVM-ERCC5 /// ERCC5 / Fold change vs veh, BIVM-ERCC5 /// ERCC5 / RFU, ILF3 / Fold change vs veh, ILF3 / RFU 11762660_at / Fold change /veh 11762660_at / RFU VCAN (11757783_s_at) / Fold change /veh VCAN (11757783_s_at) / RFU DDX43 (11728927_at) / Fold change /veh DDX43 (11728927_at) / RFU KRT8 (11758188_x_at) / Fold change /veh KRT8 (11758188_x_at) / RFU NKD1 (11759106_at) / Fold change /veh NKD1 (11759106_at) / RFU SRD5A1 (11742802_a_at) / Fold change /veh SRD5A1 (11742802_a_at) / RFU TPSAB1 /// TPSB2 (11721975_s_at) / Fold change /veh TPSAB1 /// TPSB2 (11721975_s_at) / RFU GSTM3 (11746129_a_at) / Fold change /veh GSTM3 (11746129_a_at) / RFU IL23R (11737362_x_at) / Fold change /veh IL23R (11737362_x_at) / RFU TMEM51 (11727254_a_at) / Fold change /veh TMEM51 (11727254_a_at) / RFU PIWIL2 (11732686_x_at) / Fold change /veh PIWIL2 (11732686_x_at) / RFU ORM1 (11744905_x_at) / Fold change /veh ORM1 (11744905_x_at) / RFU CCDC152 (11743942_at) / Fold change /veh CCDC152 (11743942_at) / RFU ECM1 (11717891_a_at) / Fold change /veh ECM1 (11717891_a_at) / RFU IL23R (11748794_a_at) / Fold change /veh IL23R (11748794_a_at) / RFU TNFAIP8L3 (11732012_x_at) / Fold change /veh TNFAIP8L3 (11732012_x_at) / RFU MBOAT4 (11741988_at) / Fold change /veh MBOAT4 (11741988_at) / RFU 11764193_at / Fold change /veh 11764193_at / RFU TMEM53 (11763286_at) / Fold change /veh TMEM53 (11763286_at) / RFU MAGEB2 (11727129_at) / Fold change /veh MAGEB2 (11727129_at) / RFU TMEM200A (11744735_a_at) / Fold change /veh TMEM200A (11744735_a_at) / RFU CCDC152 (11751479_a_at) / Fold change /veh CCDC152 (11751479_a_at) / RFU FAM211A (11726209_a_at) / Fold change /veh FAM211A (11726209_a_at) / RFU RGS16 (11746705_a_at) / Fold change /veh RGS16 (11746705_a_at) / RFU VCAN (11755009_s_at) / Fold change /veh VCAN (11755009_s_at) / RFU RHOB (11743442_s_at) / Fold change /veh RHOB (11743442_s_at) / RFU RGS16 (11720943_a_at) / Fold change /veh RGS16 (11720943_a_at) / RFU RGS16 (11720944_at) / Fold change /veh RGS16 (11720944_at) / RFU, VPS4B / Fold change vs veh, VPS4B / RFU, CREB1 / Fold change vs veh, CREB1 / RFU, DNAJC13 / Fold change vs veh, DNAJC13 / RFU, GNAQ / Fold change vs veh, GNAQ / RFU, CDK5R1 / Fold change vs veh, CDK5R1 / RFU, ZRANB3 / Fold change vs veh, ZRANB3 / RFU, CUL4A / Fold change vs veh, CUL4A / RFU, CCNY / Fold change vs veh, CCNY / RFU, UFL1 / Fold change vs veh, UFL1 / RFU, COG3 / Fold change vs veh, COG3 / RFU, DIAPH2 / Fold change vs veh, DIAPH2 / RFU, SKA2 / Fold change vs veh, SKA2 / RFU, AFF3 / Fold change vs veh, AFF3 / RFU, LMF1 / Fold change vs veh, LMF1 / RFU, IPO11 / Fold change vs veh, IPO11 / RFU, DFFB / Fold change vs veh, DFFB / RFU, FOXP1 / Fold change vs veh, FOXP1 / RFU, CARD8 / Fold change vs veh, CARD8 / RFU, STRN3 / Fold change vs veh, STRN3 / RFU, ADK / Fold change vs veh, ADK / RFU, RASSF2 / Fold change vs veh, RASSF2 / RFU, WIPF1 / Fold change vs veh, WIPF1 / RFU, LARP1B / Fold change vs veh, LARP1B / RFU, RASA1 / Fold change vs veh, RASA1 / RFU, RB1 / Fold change vs veh, RB1 / RFU, PPFIA1 / Fold change vs veh, PPFIA1 / RFU, MAT2A / Fold change vs veh, MAT2A / RFU, CCT5 / Fold change vs veh, CCT5 / RFU, WDR92 / Fold change vs veh, WDR92 / RFU, CUX1 / Fold change vs veh, CUX1 / RFU, TTC7A / Fold change vs veh, TTC7A / RFU, TMEM135 / Fold change vs veh, TMEM135 / RFU, DEPTOR / Fold change vs veh, DEPTOR / RFU, CPM / Fold change vs veh, CPM / RFU, DNAJB6 / Fold change vs veh, DNAJB6 / RFU, CACNA2D3 / Fold change vs veh, CACNA2D3 / RFU, DTX4 / Fold change vs veh, DTX4 / RFU, TFCP2 / Fold change vs veh, TFCP2 / RFU, GMCL1 /// GMCL1P1 / Fold change vs veh, GMCL1 /// GMCL1P1 / RFU, AEBP2 / Fold change vs veh, AEBP2 / RFU, SNHG1 /// SNORD22 /// SNORD25 /// SNORD26 /// SNORD27 /// SNORD28 /// SNORD29 /// SNORD31 / Fold change vs veh, SNHG1 /// SNORD22 /// SNORD25 /// SNORD26 /// SNORD27 /// SNORD28 /// SNORD29 /// SNORD31 / Fold change (Aza/veh), C12orf56 (ProbeSet 11735607_a_at) / Fold change (ACY-1035/veh), C12orf56 (ProbeSet 11735607_a_at) / Fold change (Aza/veh), FGFR1OP (ProbeSet 11751329_s_at) / Fold change (ACY-1035/veh), FGFR1OP (ProbeSet 11751329_s_at) / Fold change (Aza/veh), VPS36 (ProbeSet 11739960_a_at) / Fold change (ACY-1035/veh), VPS36 (ProbeSet 11739960_a_at) / RFU SYPL1 (11715823_x_at) / Fold change /veh SYPL1 (11715823_x_at) / RFU IGFBP7 (11715501_s_at) / Fold change /veh IGFBP7 (11715501_s_at) / RFU REEP3 (11722064_at) / Fold change /veh REEP3 (11722064_at) / RFU IGLL1 (11728026_x_at) / Fold change /veh IGLL1 (11728026_x_at): dose or concentration left out as unconfirmed
Conditions: MV-4-11 cells, 48 hours

Nc1ccc(-c2cccs2)cc1NC(=O)c1ccc2c(c1)cc(C1CC1)n2CCN1CCOCC1 [ACY-1035]
Fold change /veh CD79A (11719716_a_at): 1.12
